# From PMC2888050, “Cromoglycate drugs suppress eicosanoid generation in U937 cells by promoting the release of Anx-A1” (Biochemical Pharmacology, 2009)
# Target: T1, PP2A (Bos taurus, UniProt P67774)
# T1 construct: gene PPP2CA
# Test: colorimetric pNPP phosphatase assay with purified enzyme, […] min pre-incubation
# Assay type: biochemical
# T1 sequence (P67774 whole entry): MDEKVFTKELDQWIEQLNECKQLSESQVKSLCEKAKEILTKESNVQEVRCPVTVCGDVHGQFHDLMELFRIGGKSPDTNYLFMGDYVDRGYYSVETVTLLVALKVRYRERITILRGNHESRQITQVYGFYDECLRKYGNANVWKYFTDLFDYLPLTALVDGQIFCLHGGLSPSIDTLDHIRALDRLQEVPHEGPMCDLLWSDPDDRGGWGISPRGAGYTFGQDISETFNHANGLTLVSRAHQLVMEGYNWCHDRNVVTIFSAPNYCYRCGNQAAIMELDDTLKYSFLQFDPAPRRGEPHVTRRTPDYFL
row,IC50 [nM],SMILES
1,~1.7,O=C(O)c1cc(=O)c2c(OCC(O)COc3cccc4oc(C(=O)O)cc(=O)c34)cccc2o1 [cromoglycate]
2,~0.65,CCCc1c2oc(C(=O)O)cc(=O)c2cc2c(=O)cc(C(=O)O)n(CC)c12 [nedocromil]
